Source: ChEMBL document CHEMBL1201862, “PubChem BioAssay data set” (2004)
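Five concentrations, 48 hours, 96-well plates. Here, GI50 denotes the concentration required for 50% inhibition of growth.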 Activity calls are given as the source filed them. Cut-off read from the data, not from the text of the source: active = GI50 up to about 1.1 µM and inactive = higher.

Key:
Assay in all cases: NCI anticancer screen, dose series, 48 h
SNB-19 = test system: SNB-19
HCC 2998 = test system: HCC 2998
NCI/ADR-RES = test system: NCI/ADR-RES
UO-31 = test system: UO-31
SF-539 = test system: SF-539
NCI-H23 = test system: NCI-H23
SR = test system: SR
TK-10 = test system: TK-10
KM12 = test system: KM12
SF-295 = test system: SF-295
UACC-257 = test system: UACC-257
SN12C = test system: SN12C
OVCAR-3 = test system: OVCAR-3
UACC-62 = test system: UACC-62
M14 = test system: M14
EKVX = test system: EKVX
SK-MEL-5 = test system: SK-MEL-5
HL-60 = test system: HL-60
SF-268 = test system: SF-268
NCI-H522 = test system: NCI-H522

Measured: GI50

C=C1CCOC2(C(O)C(C)(O)CO)NC(=O)C1(O)NC2=O (centres undefined)
inactive: SNB-19 > 100 µM | HCC 2998 > 100 µM | NCI/ADR-RES > 100 µM | UO-31 > 100 µM | SF-539 > 100 µM | NCI-H23 > 100 µM | SR > 100 µM | TK-10 > 100 µM | KM12 > 100 µM | SF-295 > 100 µM | UACC-257 > 100 µM | SN12C > 100 µM | OVCAR-3 > 100 µM | UACC-62 > 100 µM | M14 > 100 µM | EKVX > 100 µM | SK-MEL-5 > 100 µM | HL-60 > 100 µM | SF-268 > 100 µM | NCI-H522 > 100 µM

COC(=O)CN1CCN(c2cccc3c2CCCC3)CC1
inactive: SNB-19 > 100 µM | HCC 2998 29.6 µM | NCI/ADR-RES 24.5 µM | UO-31 92.3 µM | SF-539 > 100 µM | NCI-H23 13.9 µM | SR 35.5 µM | TK-10 93.8 µM | KM12 43.9 µM | SF-295 > 100 µM | UACC-257 50.6 µM | SN12C 56 µM | OVCAR-3 19.9 µM | UACC-62 > 100 µM | M14 19.4 µM | EKVX 66.2 µM | SK-MEL-5 23.2 µM | HL-60 35.2 µM | NCI-H522 67.6 µM

CC(=O)Nc1ccc2nc(-c3ccccn3)c(-c3ccccn3)nc2c1
inactive: SNB-19 > 100 µM | HCC 2998 > 100 µM | NCI/ADR-RES > 100 µM | UO-31 > 100 µM | SF-539 > 100 µM | SR > 100 µM | TK-10 > 100 µM | KM12 > 100 µM | SF-295 > 100 µM | UACC-257 > 100 µM | SN12C > 100 µM | OVCAR-3 > 100 µM | UACC-62 > 100 µM | M14 > 100 µM | EKVX > 100 µM | SK-MEL-5 > 100 µM | HL-60 > 100 µM | SF-268 > 100 µM | NCI-H522 > 100 µM

COC(=O)/C(C#N)=C(\Nc1ccccc1)N1CCCCC1
inactive: SNB-19 > 100 µM | HCC 2998 > 100 µM | NCI/ADR-RES > 100 µM | UO-31 > 100 µM | SF-539 > 100 µM | NCI-H23 > 100 µM | SR > 100 µM | TK-10 > 100 µM | SF-295 > 100 µM | UACC-257 > 100 µM | SN12C > 100 µM | OVCAR-3 > 100 µM | M14 > 100 µM | EKVX > 100 µM | SK-MEL-5 > 100 µM | HL-60 > 100 µM | SF-268 > 100 µM | NCI-H522 > 100 µM

CC(C)CCn1nc(N)c2nc3ccccc3nc21
inactive: SNB-19 > 100 µM | HCC 2998 > 100 µM | NCI/ADR-RES > 100 µM | UO-31 > 100 µM | SF-539 > 100 µM | NCI-H23 > 100 µM | SR 15.2 µM | TK-10 > 100 µM | KM12 > 100 µM | SF-295 > 100 µM | UACC-257 > 100 µM | SN12C > 100 µM | OVCAR-3 > 100 µM | UACC-62 > 100 µM | M14 > 100 µM | EKVX > 100 µM | HL-60 41.6 µM | SF-268 > 100 µM | NCI-H522 > 100 µM

[O-][S+](Nc1ccccc1)c1ccccc1Oc1ccccc1 (centres undefined)
inactive: SNB-19 38.9 µM | HCC 2998 24.3 µM | NCI/ADR-RES 27.5 µM | UO-31 20.9 µM | SF-539 14.6 µM | NCI-H23 29.8 µM | SR 7.41 µM | TK-10 > 100 µM | KM12 18.8 µM | SF-295 28.2 µM | UACC-257 51.2 µM | SN12C 86.7 µM | OVCAR-3 92.9 µM | M14 24.5 µM | EKVX 26 µM | SK-MEL-5 30.5 µM | HL-60 25.5 µM | SF-268 16.3 µM | NCI-H522 25 µM
